From patent US9028858B2 (Coloplast A/S, priority 2003, dated 2015)
Where two headings read alike, the source gives them in different places.

Details: for %-point H2O2 after storage / Appearance of catheter (0–5; 0 = perfect, 5 = unacceptable) / Appearance of swelling medium (0–5) / Loss of H2O2 (%/day) / pH after storage: 1 week
[1] = initial 0.2%-point H2O2, 60° C., no PEG 2000
[2] = initial 0.2%-point H2O2, 80° C., no PEG 2000
[3] = initial 0.4%-point H2O2, 60° C., no PEG 2000
[4] = initial 0.4%-point H2O2, 80° C., no PEG 2000
[5] = initial 0.8%-point H2O2, 60° C., no PEG 2000
[6] = initial 0.8%-point H2O2, 80° C., no PEG 2000
[7] = initial 1.6%-point H2O2, 60° C., 6% PEG 2000
[8] = initial 1.6%-point H2O2, 60° C., no PEG 2000
[9] = initial 1.6%-point H2O2, 80° C., 6% PEG 2000
[10] = initial 1.6%-point H2O2, 80° C., no PEG 2000

SMILES: OO [Std H2O2, hydrogen peroxide]
- H2O2 disappeared during storage (1 week at 80° C., samples not containing PEG 2000, regardless of initial H2O2 concentration): 25-30%
- %-point H2O2 after storage [1]: 0.20 %-point
- Appearance of catheter (0–5; 0 = perfect, 5 = unacceptable) [1]: 0
- Appearance of swelling medium (0–5) [1]: 0
- Loss of H2O2 (%/day) [1]: 0.3 %/day
- pH after storage [1]: 5.64
- %-point H2O2 after storage [2]: 0.15 %-point
- Appearance of catheter (0–5; 0 = perfect, 5 = unacceptable) [2]: 0
- Appearance of swelling medium (0–5) [2]: 0
- Loss of H2O2 (%/day) [2]: 3.5 %/day
- pH after storage [2]: 5.63
- %-point H2O2 after storage [3]: 0.37 %-point
- Appearance of catheter (0–5; 0 = perfect, 5 = unacceptable) [3]: 0
- Appearance of swelling medium (0–5) [3]: 0
- Loss of H2O2 (%/day) [3]: 1.0 %/day
- pH after storage [3]: 5.63
- %-point H2O2 after storage [4]: 0.29 %-point
- Appearance of catheter (0–5; 0 = perfect, 5 = unacceptable) [4]: 0
- Appearance of swelling medium (0–5) [4]: 0
- Loss of H2O2 (%/day) [4]: 3.8 %/day
- pH after storage [4]: 5.79
- %-point H2O2 after storage [5]: 0.75 %-point
- Appearance of catheter (0–5; 0 = perfect, 5 = unacceptable) [5]: 0
- Appearance of swelling medium (0–5) [5]: 0
- Loss of H2O2 (%/day) [5]: 0.9 %/day
- pH after storage [5]: 5.63
- %-point H2O2 after storage [6]: 0.58 %-point
- Appearance of catheter (0–5; 0 = perfect, 5 = unacceptable) [6]: 0
- Appearance of swelling medium (0–5) [6]: 0
- Loss of H2O2 (%/day) [6]: 4.0 %/day
- pH after storage [6]: 5.86
- %-point H2O2 after storage [7]: 1.25 %-point
- Appearance of catheter (0–5; 0 = perfect, 5 = unacceptable) [7]: 1
- Appearance of swelling medium (0–5) [7]: 0
- Loss of H2O2 (%/day) [7]: 3.2 %/day
- pH after storage [7]: 5.13
- %-point H2O2 after storage [8]: 1.41 %-point
- Appearance of catheter (0–5; 0 = perfect, 5 = unacceptable) [8]: 0
- Appearance of swelling medium (0–5) [8]: 0
- Loss of H2O2 (%/day) [8]: 1.7 %/day
- pH after storage [8]: 5.71
- %-point H2O2 after storage [9]: 0.02 %-point
- Appearance of catheter (0–5; 0 = perfect, 5 = unacceptable) [9]: 3
- Appearance of swelling medium (0–5) [9]: 0
- Loss of H2O2 (%/day) [9]: 14.1 %/day
- pH after storage [9]: 3.46
- %-point H2O2 after storage [10]: 1.13 %-point
- Appearance of catheter (0–5; 0 = perfect, 5 = unacceptable) [10]: 0
- Appearance of swelling medium (0–5) [10]: 0
- Loss of H2O2 (%/day) [10]: 4.2 %/day
- pH after storage [10]: 6.28
